“Also recorded” adds a separate entry of the source. Read-outs that look alike come from different tables or passages of the source.
What was measured:
human Rio1 [1] = biological target: T1, human Rio1 (Homo sapiens, UniProt Q9BRS2); experiment: Rio1 autophosphorylation assay ([γ-32P]ATP); format: biochemical; conditions: 0.5 µM ATP; for IC50: 37 °C, 15 min, read-out: IC50 (µM) ± SD Rio1; for Ki: read-out: Ki (µM) ± SD Rio1
T1 construct: Human recombinant kinase Rio1 containing residues 134–494 was expressed and purified as previously reported; made in house
T1 sequence (Q9BRS2 134-494): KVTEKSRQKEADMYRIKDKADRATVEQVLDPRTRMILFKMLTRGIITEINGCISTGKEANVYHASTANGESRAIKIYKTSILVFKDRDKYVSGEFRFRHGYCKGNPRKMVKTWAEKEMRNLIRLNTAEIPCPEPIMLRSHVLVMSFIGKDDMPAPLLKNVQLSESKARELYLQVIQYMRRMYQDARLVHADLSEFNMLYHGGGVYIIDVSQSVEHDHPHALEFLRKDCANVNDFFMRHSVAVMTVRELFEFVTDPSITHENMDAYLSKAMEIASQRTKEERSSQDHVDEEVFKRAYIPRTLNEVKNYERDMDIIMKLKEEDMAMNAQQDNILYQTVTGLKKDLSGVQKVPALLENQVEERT
Protocol: Recombinant human protein kinase GST-CK2α was produced in bacteria and purified as described elsewhere. The plasmid carrying the gene encoding human protein kinase Rio1 (residues […]) was kindly gifted by Professor Nicole LaRonde—LeBlanc (University of Maryland, USA). Human recombinant kinase Rio1 containing residues 134–494 was expressed and purified as previously reported with a few modifications.
In order to determine the autophosphorylation of human Rio1, the enzyme was incubated at 37 °C for 15 min in 50 μl samples each containing 1 pmol of human recombinant Rio1 and an appropriate concentration of tested compound (0.01–50 µM). The reaction buffer contained 0.5 µM ATP, [γ-^32P]ATP (specific radioactivity 300–1000 cpm/pmol), 50 mM NaCl, 10 mM Mg^2+, 50 mM Tris–HCl pH 7.5, and 6 mM 2-mercaptoethanol.
(§1) The phosphorylation was terminated by addition of SDS/PAGE sample buffer, and proteins were resolved by electrophoresis, followed by Coomassie Brilliant Blue staining. The gels were dried and ^32P-labelled bands of P2B and Rio1 were excised from the gel, and radioactivity was determined in a scintillation counter (MicroBeta, Perkin Elmer) by Cerenkov counting.
(§2) IC50, K i, K m, and V max values were calculated using GraphPad Prism (version 4.0) software.

hCK2α [2] = biological target: T2, hCK2α (Homo sapiens, UniProt P68400); experiment: CK2 phosphorylation assay (P2B substrate, [γ-32P]ATP); format: biochemical; design: GST (N); made in house; host or cells: bacteria; conditions: for IC50 / Ki: 20 µM ATP, P2B protein substrate; for IC50: 37 °C, 5 min, read-out: IC50 (µM) ± SD CK2; for Ki: read-out: Ki (µM) ± SD CK2; for inhibition of CK2 stronger than that of Rio1 (fold): CK2 versus Rio1
Protocol: Recombinant human protein kinase GST-CK2α was produced in bacteria and purified as described elsewhere.
The reaction buffer contained 20 µM [γ-^32P]ATP (specific radioactivity 300–1000 cpm/pmol), 15 mM Mg^2+, 20 mM Tris–HCl pH 7.5, and 6 mM 2-mercaptoethanol.
as §1, §2

human Rio1 [3] = biological target: T1, human Rio1; experiment: Steady-state kinetics of Rio1 autophosphorylation (Km for ATP, Vmax) with TIBI; format: biochemical
Protocol: Additionally, the same protocol was followed with the addition of TIBI to the reaction mixture at a concentration of 0.01, 0.05, and 0.1 µM.
as §1, §2

hRio1 [4] = biological target: T3, hRio1 (Homo sapiens, UniProt Q9BRS2); experiment: Thermofluor (thermal shift) assay, Rio1; format: binding; conditions: 100 µM TIBI
T3 construct: Human recombinant kinase Rio1 containing residues 134–494 was expressed and purified as previously reported; made in house
T3 sequence (Q9BRS2 134-494): T1 sequence (Q9BRS2 134-494)
Protocol: (§3) The procedure was performed according to the protocol described elsewhere with a few modifications. 10-µl reactions containing 50 mM NaCl, 10 mM Mg^2+, 50 mM Tris–HCl pH 7.5, 1 mg/ml hRio1 or hCK2α, and 100 µM TIBI or 5% DMSO (control) were incubated at 4 °C for 30 min. 10 µl of the SYPRO Orange dye was then added to the reactions. The samples were heated from 4 to 98 °C at a rate of 0.2° per second using a thermal cycler (CFX 1000, Bio-Rad). The changes in fluorescence intensity were measured as the temperature increased. Melting temperatures (T m) of hRio1 and CK2 in the presence and absence of TIBI were calculated using Bio-Rad software. The experiment was performed in duplicate.

hCK2α [5] = biological target: T2, hCK2α; experiment: Thermofluor (thermal shift) assay, CK2α; format: binding; conditions: 100 µM TIBI
Protocol: as §3, with “The samples were heated from 4 to 98 °C at a rate of 0.2° per second using a thermal cycler (CFX 1000, Bio-Rad).” left out

hRio1 [6] = biological target: T3, hRio1; experiment: Size-exclusion chromatography of Rio1 (oligomeric state); conditions: 100 µM TIBI, 2 mg/ml hRio1
Protocol: The glass column (200/10 mm) filled with the Sephadex G-200 medium (GE Healthcare) was equilibrated with a buffer containing 10 mM Tris, pH 7.5, 150 mM NaCl, and 6 mM β-mercaptoethanol. In order to calibrate the column, four proteins, namely β-amylase (200 kDa), alcohol dehydrogenase (150 kDa), bovine serum albumin (67 kDa), and ovalbumin (43 kDa), were separately loaded onto the column. 100-µl samples containing 2 mg/ml hRio1 diluted in the equilibration buffer in the presence or absence (control) of 100 µM TIBI were then loaded onto the column. The chromatography was performed at a flow rate 0.2 ml/min using the FPLC system AKTA Purifier 10 (GE Healthcare), and runs were monitored by OD280.

human Rio1 [7] = biological target: T1, human Rio1; experiment: Rio1 autophosphorylation assay ([γ-32P]ATP); format: biochemical
[8] = test system: promyelocytic leukemia cell line HL-60; design: method as in PMID 21229880; conditions: cited from earlier work
human Rio1 [9] = biological target: T1, human Rio1; conditions: cited from earlier work
hRio1 [10] = biological target: T3, hRio1; conditions: cited from earlier work

T2 sequence (P68400 whole entry): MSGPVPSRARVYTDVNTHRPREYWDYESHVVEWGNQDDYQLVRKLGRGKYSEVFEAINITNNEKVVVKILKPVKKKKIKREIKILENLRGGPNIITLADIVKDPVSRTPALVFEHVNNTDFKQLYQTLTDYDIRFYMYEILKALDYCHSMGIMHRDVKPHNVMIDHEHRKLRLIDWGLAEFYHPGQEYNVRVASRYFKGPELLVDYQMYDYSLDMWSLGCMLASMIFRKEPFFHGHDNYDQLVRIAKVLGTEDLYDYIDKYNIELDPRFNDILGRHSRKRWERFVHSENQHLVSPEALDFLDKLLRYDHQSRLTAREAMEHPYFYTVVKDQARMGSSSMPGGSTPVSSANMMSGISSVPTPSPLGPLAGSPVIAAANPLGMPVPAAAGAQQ

Row | Compound | IC50 (human Rio1 [1]) [µM] | IC50 (hCK2α [2]) [µM] | Ki (hCK2α [2]) [µM] | Ki (human Rio1 [1]) [µM] | also measured
1 | CN(C)c1nc2c(Br)c(Br)c(Br)c(Br)c2n1C [1Me-DMAT, 4,5,6,7-tetrabromo-N,N,1-trimethylbenzimidazole-2-amine] | 0.61 ± 0.02 | 0.39 ± 0.012 | 0.167 |  | inhibition of CK2 stronger than that of Rio1 (fold) (hCK2α [2]): twofold stronger
2 | Cc1nc2c(I)c(I)c(I)c(I)c2[nH]1 [K92, 4,5,6,7-tetraiodo-2-methylbenzimidazole] | 0.19 ± 0.011 | 0.066 ± 0.003 | 0.025 ± 0.001 | 0.1 ± 0.004 | inhibition of CK2 stronger than that of Rio1 (fold) (hCK2α [2]): fourfold stronger
3 | Brc1c(Br)c(Br)c2[nH]nnc2c1Br [TBB, 4,5,6,7-Tetrabromo-2-azabenzimidazole, reference compound] | 1.74 ± 0.05 |  |  | 0.983 ± 0.03 | 
4 | Cn1c(SCC(=O)O)nc2c(Br)c(Br)c(Br)c(Br)c21 [TBTS, [(4,5,6,7-tetrabromo-N,N,1-trimethylbenzimidazole-2-yl)sulfanyl]acetic acid] |  | 0.6 ± 0.03 | 0.257 ± 0.009 | 0.39 ± 0.011 | 
5 | NCCNc1nc2c(I)c(I)c(I)c(I)c2[nH]1 [TI-2Am, 4,5,6,7-tetraiodobenzimidazole-2-amine-ethylamine] | 0.23 ± 0.01 | 0.05 ± 0.002 | 0.021 ± 0.001 | 0.13 ± 0.005 | inhibition of CK2 stronger than that of Rio1 (fold) (hCK2α [2]): ca. sixfold stronger
6 | Ic1c(I)c(I)c2[nH]cnc2c1I [TIBI, 4,5,6,7-tetraiodobenzimidazole] | 0.09 ± 0.005 | 0.083 ± 0.003 | 0.035 ± 0.001 | 0.05 ± 0.002 | mode of inhibition of Rio1 (human Rio1 [3]): strict ATP-competitive inhibitors; Vmax of Rio1 in the presence of TIBI (human Rio1 [3]; no shift with increasing TIBI concentration): 0.09 pmol/s; ΔTm at 100 µM (hRio1 [4]; bound versus unbound, read-out: shift in melting temperature (Tm) of Rio1): 10 °C; melting temperature (Tm) of bound Rio1 (hRio1 [4]; unbound enzyme 58.8 °C): 68.8 °C; ΔTm at 100 µM (hCK2α [5]; bound versus unbound, read-out: shift in melting temperature (Tm) of CK2α): 20 °C; melting temperature (Tm) of TIBI-bound CK2α (hCK2α [5]; unbound enzyme 58.8 °C): 78.8 °C; effect on oligomeric state (monomer–tetramer equilibrium) of Rio1 (hRio1 [6]): does not influence the oligomeric state; also recorded: did not observe any changes in the monomer–tetramer equilibrium; IC50 (human Rio1 [7]; IC50 against Rio1 at 0.01 µM ATP, 0.01 µM ATP): 46 nM; IC50 (human Rio1 [7]; IC50 against Rio1 at 0.1 µM ATP, 0.1 µM ATP): 61 nM; IC50 (human Rio1 [7]; IC50 against Rio1 at 1 µM ATP, 1 µM ATP): 101 nM; proapoptotic activity [8]: proapoptotic activity
7 | CN(C)c1nc2c(I)c(I)c(I)c(I)c2n1C [TIdiMe, 2-dimethylamino-1-metyl-4,5,6,7-tetraiodobenzimidazole] | 0.24 ± 0.008 | 0.2 ± 0.006 | 0.085 ± 0.003 | 0.135 ± 0.005 | 
8 | N#Cc1cn([C@@H]2O[C@H](CO)[C@@H](O)[C@H]2O)c2ncnc(N)c12 [Toyocamycin, toyocamycin, reference compound] | 3.66 ± 0.09 | 54.8 ± 1.9 | 23.5 ± 0.8 | 2.07 ± 0.07 | mode of inhibition of Rio1 (human Rio1 [9]): mixed inhibition; shift in Tm of human Rio1 bound to toyocamycin (hRio1 [10]): 12.1 °C

More lines, main results first:

Row | IC50 (human Rio1 [1]) [µM] | IC50 (hCK2α [2]) [µM] | Ki (hCK2α [2]) [µM] | Ki (human Rio1 [1]) [µM] | Compound | also measured
9 | 0.37 ± 0.011 |  |  | 0.209 ± 0.008 | O=C(O)c1ccc2c(c1)nc(Nc1cccc(Cl)c1)c1ccncc12 [CX-4945, Silmitasertib, reference compound] | 
10 | 0.19 ± 0.009 |  |  | 0.1 | CN(C)c1nc2c(Br)c(Br)c(Br)c(Br)c2[nH]1 [DMAT, 2-dimethylamino-4,5,6,7-tetrabromobenzimidazole, reference compound] | 
11 | 0.29 ± 0.009 | 0.3 ± 0.009 | 0.128 ± 0.005 | 0.164 ± 0.007 | Brc1c(I)c(Br)c2nc[nH]c2c1I [K95, 4,6-dibromo-5,7-diiodobenzimidazole] | 
12 | 0.33 ± 0.007 |  |  | 0.186 ± 0.009 | Brc1c(Br)c(Br)c2[nH]cnc2c1Br [TBI, 4,5,6,7-tetrabromobenzimidazole] | 
13 | 0.65 ± 0.03 | 0.33 ± 0.013 | 0.141 ± 0.005 | 0.367 ± 0.012 | CC(CC(=O)O)Sc1nc2c(Br)c(Br)c(Br)c(Br)c2[nH]1 (stereo not shown) [TBSB, 3-(4,5,6,7-tetrabromobenzimidazole-2-ylsulfanyl)butanoic acid] | inhibition of CK2 stronger than that of Rio1 (fold) (hCK2α [2]): twofold stronger
14 | 1.9 ± 0.07 | 9.7 ± 0.3 | 4.15 ± 0.1 | 1.07 ± 0.04 | Clc1c(Cl)c(Cl)c2[nH]cnc2c1Cl [TCI, 4,5,6,7-tetrachlorobenzimidazole] | 
15 | 2.17 ± 0.06 | 1.51 ± 0.04 | 0.647 ± 0.014 | 1.23 ± 0.03 | CC(CC(=O)O)Cn1c(N(C)C)nc2c(Br)c(Br)c(Br)c(Br)c21 (stereo not shown) [TDBB, 3-methyl-4-[4,5,6,7-tetrabromo-2-(dimethylamino)benzimidazole-1-yl]butanoic acid] | 

Source: PMC5290066 (Molecular and Cellular Biochemistry, 2016)
